Experimental data reported in patent publication US20020137929A1, “1 - (3-heterocyclylphenyl) isothiourea, -isourea, -guanidine and -amidine herbicidal agents” (Intellectual Property Department, BASF Aktiengesellschaft, priority 1998, published 2002).

Legend:
[1] = system: SAGPY (Arrowhead (Pygmaea)); assay: Preemergence weed control under flooded paddy conditions; type: in vivo, Sagittaria pygmaea; conditions: rated 3-4 weeks after treatment
Method in brief: (§1)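 Ratings on a 0-9 visual scale cover stand, vigor, malformation, size, chlorosis and overall appearance relative to a control, taken three to four weeks post-treatment. Application was into flood water over freshly sown silt loam at roughly 0.0313 to 0.500 kg/ha.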

[2] = system: ABUTH (Velvetleaf); assay: Preemergence herbicidal evaluation; type: in vivo, Abutilon theophrasti; conditions: rated 4-5 weeks after treatment
Method in brief: (§2)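 Steps: mix seeds into potting soil; plant atop ~1 inch soil; spray compound in aqueous acetone (~0.0156-0.500 kg/ha equivalent); maintain in greenhouse with watering; rate visually 0-9 versus control at 4-5 weeks.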

[3] = system: AMBEL (Ragweed, Common); assay: Postemergence herbicidal evaluation; type: in vivo, Ambrosia artemisifolia; conditions: postemergence
Method in brief: (§3)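 Young plants, roughly two weeks from seeding, receive the active ingredient as a sprayed dispersion (acetone/water 50/50, 0.5% TWEEN 20) at 40 psi. Doses span about 0.0156 to 0.500 kg/ha. A visual score from 0 to 9 compares treated with control plants four to five weeks on.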

[4] = system: ECHCG (Barnyardgrass); assay: Postemergence herbicidal evaluation; type: in vivo, Echinochloa crus-galli; conditions: postemergence
Method in brief: as §3

[5] = system: TRZAWR (Wheat, Winter, cv Riband); assay: Postemergence herbicidal evaluation; type: in vivo, Triticum aestivum; conditions: postemergence
Method in brief: as §3

[6] = system: GLXMAW (Soybean, Williams); assay: Postemergence herbicidal evaluation; type: in vivo, Glycine max, (L.) Merr. cv Williams; conditions: postemergence
Method in brief: as §3

[7] = system: MOOVA (Monochoria); assay: Preemergence weed control under flooded paddy conditions; type: in vivo, Monochoria vaginalis; conditions: rated 3-4 weeks after treatment
Method in brief: as §1

[8] = system: ABUTH (Velvetleaf); assay: Postemergence herbicidal evaluation; type: in vivo, Abutilon theophrasti; conditions: postemergence
Method in brief: as §3

[9] = system: SETVI (Foxtail, Green); assay: Preemergence herbicidal evaluation; type: in vivo, Setaria viridis; conditions: rated 4-5 weeks after treatment
Method in brief: as §2

[10] = system: ORYSAT (Rice, Tebonnet); assay: Postemergence herbicidal evaluation; type: in vivo, Oryza sativa, (L.) Tebonnet; conditions: postemergence
Method in brief: as §3

[11] = system: CASOB (Sicklepod); assay: Preemergence herbicidal evaluation; type: in vivo, Cassia obtusifolia; conditions: rated 4-5 weeks after treatment
Method in brief: as §2

[12] = system: SETVI (Foxtail, Green); assay: Postemergence herbicidal evaluation; type: in vivo, Setaria viridis; conditions: postemergence
Method in brief: as §3

[13] = rate 0.0156 kg/ha, rating scale 0-9
[14] = rate 0.0313 kg/ha, rating scale 0-9
[15] = rate 0.0625 kg/ha, rating scale 0-9
[16] = rate 0.1250 kg/ha, rating scale 0-9
[17] = rate 0.2500 kg/ha, rating scale 0-9

Structure (SMILES): COC(=O)COC(=O)CN1C(=O)CSC1=Nc1cc(-n2c(=O)cc(C(F)(F)F)n(C)c2=O)c(F)cc1Cl [Compound 108, 2-{{2-Chloro-5-[3,6-dihydro-3-methyl-2,6-dioxo-4-(trifluoromethyl)-1(2H)-pyrimidinyl]-4-fluorophenyl}imino}-4-oxo-3-thiazolidineacetic acid, ester with methyl glycolate]
- SAGPY herbicidal effect rating ([1]; 0.0313 kg/ha): 0.0
- SAGPY herbicidal effect rating ([1]; 0.0625 kg/ha): 0.0
- SAGPY herbicidal effect rating ([1]; 0.1250 kg/ha): 3.0
- SAGPY herbicidal effect rating ([1]; 0.2500 kg/ha): 6.0
- Preemergence herbicidal rating ABUTH ([2]; rate 0.0156 kg/ha): 0.0
- Preemergence herbicidal rating ABUTH ([2]; rate 0.0313 kg/ha): 0.0
- Preemergence herbicidal rating ABUTH ([2]; rate 0.0625 kg/ha): 4.0
- Preemergence herbicidal rating ABUTH ([2]; rate 0.1250 kg/ha): 8.0
- Preemergence herbicidal rating ABUTH ([2]; rate 0.2500 kg/ha): 9.0
- Herbicidal rating AMBEL ([3]; rate 0.0158 kg/ha): 4.0
- Herbicidal rating AMBEL ([3]; rate 0.0315 kg/ha): 5.0
- Herbicidal rating AMBEL ([3]; rate 0.0630 kg/ha): 5.0
- Herbicidal rating ECHCG ([4]; rate 0.0158 kg/ha): 3.0
- Herbicidal rating ECHCG ([4]; rate 0.0315 kg/ha): 4.0
- Herbicidal rating ECHCG ([4]; rate 0.0630 kg/ha): 4.0
- Herbicidal rating TRZAWR ([5]; rate 0.0158 kg/ha): 3.0
- Herbicidal rating TRZAWR ([5]; rate 0.0315 kg/ha): 3.5
- Herbicidal rating TRZAWR ([5]; rate 0.0630 kg/ha): 4.5
- Herbicidal rating GLXMAW ([6]; rate 0.0158 kg/ha): 5.0
- Herbicidal rating GLXMAW ([6]; rate 0.0315 kg/ha): 5.5
- Herbicidal rating GLXMAW ([6]; rate 0.0630 kg/ha): 6.0
- MOOVA herbicidal effect rating ([7]; 0.0313 kg/ha): 9.0
- MOOVA herbicidal effect rating ([7]; 0.0625 kg/ha): 9.0
- MOOVA herbicidal effect rating ([7]; 0.1250 kg/ha): 9.0
- MOOVA herbicidal effect rating ([7]; 0.2500 kg/ha): 9.0
- Herbicidal rating ABUTH ([8]; rate 0.0158 kg/ha): 9.0
- Herbicidal rating ABUTH ([8]; rate 0.0315 kg/ha): 9.0
- Herbicidal rating ABUTH ([8]; rate 0.0630 kg/ha): 9.0
- Preemergence herbicidal rating SETVI ([9]; rate 0.0156 kg/ha): 0.0
- Preemergence herbicidal rating SETVI ([9]; rate 0.0313 kg/ha): 0.0
- Preemergence herbicidal rating SETVI ([9]; rate 0.0625 kg/ha): 1.0
- Preemergence herbicidal rating SETVI ([9]; rate 0.1250 kg/ha): 7.0
- Preemergence herbicidal rating SETVI ([9]; rate 0.2500 kg/ha): 9.0
- Herbicidal rating ORYSAT ([10]; rate 0.0158 kg/ha): 3.0
- Herbicidal rating ORYSAT ([10]; rate 0.0315 kg/ha): 3.0
- Herbicidal rating ORYSAT ([10]; rate 0.0630 kg/ha): 3.5
- Preemergence herbicidal rating CASOB ([11]; rate 0.0156 kg/ha): 0.0
- Preemergence herbicidal rating CASOB ([11]; rate 0.0313 kg/ha): 0.0
- Preemergence herbicidal rating CASOB ([11]; rate 0.0625 kg/ha): 0.0
- Preemergence herbicidal rating CASOB ([11]; rate 0.1250 kg/ha): 0.0
- Preemergence herbicidal rating CASOB ([11]; rate 0.2500 kg/ha): 9.0
- Herbicidal rating SETVI ([12]; rate 0.0158 kg/ha): 4.0
- Herbicidal rating SETVI ([12]; rate 0.0315 kg/ha): 6.0
- Herbicidal rating SETVI ([12]; rate 0.0630 kg/ha): 7.0

Structure (SMILES): CN(C)c1ccc(CN2C(=O)CSC2=Nc2cc(-n3c(=O)cc(C(F)(F)F)n(C)c3=O)c(F)cc2Cl)cc1 [Compound 138, 3-{4-Chloro-5-{{3-[p-(dimethylamino)benzyl]-4-oxo-2-thiazolidinylidene}amino}-2-fluorophenyl}-1-methyl-6-(trifluoromethyl)-2,4(1H,3H)-pyrimidinedione]
- herbicidal effect rating, SAGPY ([1]; 0.0313 kg/ha): 0.0
- herbicidal effect rating, SAGPY ([1]; 0.0625 kg/ha): 0.0
- herbicidal effect rating, SAGPY ([1]; 0.1250 kg/ha): 0.0
- herbicidal effect rating, SAGPY ([1]; 0.2500 kg/ha): 3.0
- Preemergence herbicidal rating ABUTH [2, 13]: 0.0
- Preemergence herbicidal rating ABUTH [2, 14]: 0.0
- Preemergence herbicidal rating ABUTH [2, 15]: 0.0
- Preemergence herbicidal rating ABUTH [2, 16]: 9.0
- Preemergence herbicidal rating ABUTH [2, 17]: 9.0
- Herbicidal rating AMBEL ([3]; rate 0.0156 kg/ha): 9.0
- Herbicidal rating AMBEL ([3]; rate 0.0313 kg/ha): 9.0
- Herbicidal rating AMBEL ([3]; rate 0.0625 kg/ha): 9.0
- Herbicidal rating ECHCG ([4]; rate 0.0156 kg/ha): 1.0
- Herbicidal rating ECHCG ([4]; rate 0.0313 kg/ha): 1.0
- Herbicidal rating ECHCG ([4]; rate 0.0625 kg/ha): 2.0
- Herbicidal rating TRZAWR ([5]; rate 0.0156 kg/ha): 2.5
- Herbicidal rating TRZAWR ([5]; rate 0.0313 kg/ha): 3.0
- Herbicidal rating TRZAWR ([5]; rate 0.0625 kg/ha): 3.0
- Herbicidal rating GLXMAW ([6]; rate 0.0156 kg/ha): 5.0
- Herbicidal rating GLXMAW ([6]; rate 0.0313 kg/ha): 6.0
- Herbicidal rating GLXMAW ([6]; rate 0.0625 kg/ha): 6.5
- herbicidal effect rating, MOOVA ([7]; 0.0313 kg/ha): 5.0
- herbicidal effect rating, MOOVA ([7]; 0.0625 kg/ha): 6.0
- herbicidal effect rating, MOOVA ([7]; 0.1250 kg/ha): 6.0
- herbicidal effect rating, MOOVA ([7]; 0.2500 kg/ha): 7.0
- Herbicidal rating ABUTH ([8]; rate 0.0156 kg/ha): 9.0
- Herbicidal rating ABUTH ([8]; rate 0.0313 kg/ha): 9.0
- Herbicidal rating ABUTH ([8]; rate 0.0625 kg/ha): 9.0
- Preemergence herbicidal rating SETVI [9, 13]: 0.0
- Preemergence herbicidal rating SETVI [9, 14]: 0.0
- Preemergence herbicidal rating SETVI [9, 15]: 0.0
- Preemergence herbicidal rating SETVI [9, 16]: 3.0
- Preemergence herbicidal rating SETVI [9, 17]: 2.0
- Herbicidal rating ORYSAT ([10]; rate 0.0156 kg/ha): 1.5
- Herbicidal rating ORYSAT ([10]; rate 0.0313 kg/ha): 2.5
- Herbicidal rating ORYSAT ([10]; rate 0.0625 kg/ha): 3.0
- Preemergence herbicidal rating CASOB [11, 13]: 0.0
- Preemergence herbicidal rating CASOB [11, 14]: 0.0
- Preemergence herbicidal rating CASOB [11, 15]: 0.0
- Preemergence herbicidal rating CASOB [11, 16]: 0.0
- Preemergence herbicidal rating CASOB [11, 17]: 0.0
- Herbicidal rating SETVI ([12]; rate 0.0156 kg/ha): 3.0
- Herbicidal rating SETVI ([12]; rate 0.0313 kg/ha): 4.0
- Herbicidal rating SETVI ([12]; rate 0.0625 kg/ha): 9.0
